Like-named read-outs stand apart in the source and are kept apart here. Positions of bridges follow the written chain, without caps; N, C: chain ends. Non-standard residues stand in square brackets, D forms with d. Residues, ends and D or L forms follow the SMILES beside them. 1Nal = N[C@@H](Cc1cccc2ccccc12)C(=O)O
What was measured:
hNav1.3 = hNav1.3 (Homo sapiens, UniProt Q9NY46); test: cell-based; settings: IonWorks Quattro, read-out: IWQ Use Nav1.3
hNav1.5 = hNav1.5 (Homo sapiens, UniProt Q14524); test: cell-based
[1] = IonWorks Quattro, Use, read-out: IWQ Use Nav1.5
[2] = clamped to −110 mV, depolarized to −10 mV, 5 min after compound, n=2
[3] = IonWorks Quattro, clamped to −110 mV, depolarized to −10 mV, 5 min after compound, n=2, read-out: IWQ Use Nav1.5

hNav1.5, sequence (Q14524 whole entry, looked up): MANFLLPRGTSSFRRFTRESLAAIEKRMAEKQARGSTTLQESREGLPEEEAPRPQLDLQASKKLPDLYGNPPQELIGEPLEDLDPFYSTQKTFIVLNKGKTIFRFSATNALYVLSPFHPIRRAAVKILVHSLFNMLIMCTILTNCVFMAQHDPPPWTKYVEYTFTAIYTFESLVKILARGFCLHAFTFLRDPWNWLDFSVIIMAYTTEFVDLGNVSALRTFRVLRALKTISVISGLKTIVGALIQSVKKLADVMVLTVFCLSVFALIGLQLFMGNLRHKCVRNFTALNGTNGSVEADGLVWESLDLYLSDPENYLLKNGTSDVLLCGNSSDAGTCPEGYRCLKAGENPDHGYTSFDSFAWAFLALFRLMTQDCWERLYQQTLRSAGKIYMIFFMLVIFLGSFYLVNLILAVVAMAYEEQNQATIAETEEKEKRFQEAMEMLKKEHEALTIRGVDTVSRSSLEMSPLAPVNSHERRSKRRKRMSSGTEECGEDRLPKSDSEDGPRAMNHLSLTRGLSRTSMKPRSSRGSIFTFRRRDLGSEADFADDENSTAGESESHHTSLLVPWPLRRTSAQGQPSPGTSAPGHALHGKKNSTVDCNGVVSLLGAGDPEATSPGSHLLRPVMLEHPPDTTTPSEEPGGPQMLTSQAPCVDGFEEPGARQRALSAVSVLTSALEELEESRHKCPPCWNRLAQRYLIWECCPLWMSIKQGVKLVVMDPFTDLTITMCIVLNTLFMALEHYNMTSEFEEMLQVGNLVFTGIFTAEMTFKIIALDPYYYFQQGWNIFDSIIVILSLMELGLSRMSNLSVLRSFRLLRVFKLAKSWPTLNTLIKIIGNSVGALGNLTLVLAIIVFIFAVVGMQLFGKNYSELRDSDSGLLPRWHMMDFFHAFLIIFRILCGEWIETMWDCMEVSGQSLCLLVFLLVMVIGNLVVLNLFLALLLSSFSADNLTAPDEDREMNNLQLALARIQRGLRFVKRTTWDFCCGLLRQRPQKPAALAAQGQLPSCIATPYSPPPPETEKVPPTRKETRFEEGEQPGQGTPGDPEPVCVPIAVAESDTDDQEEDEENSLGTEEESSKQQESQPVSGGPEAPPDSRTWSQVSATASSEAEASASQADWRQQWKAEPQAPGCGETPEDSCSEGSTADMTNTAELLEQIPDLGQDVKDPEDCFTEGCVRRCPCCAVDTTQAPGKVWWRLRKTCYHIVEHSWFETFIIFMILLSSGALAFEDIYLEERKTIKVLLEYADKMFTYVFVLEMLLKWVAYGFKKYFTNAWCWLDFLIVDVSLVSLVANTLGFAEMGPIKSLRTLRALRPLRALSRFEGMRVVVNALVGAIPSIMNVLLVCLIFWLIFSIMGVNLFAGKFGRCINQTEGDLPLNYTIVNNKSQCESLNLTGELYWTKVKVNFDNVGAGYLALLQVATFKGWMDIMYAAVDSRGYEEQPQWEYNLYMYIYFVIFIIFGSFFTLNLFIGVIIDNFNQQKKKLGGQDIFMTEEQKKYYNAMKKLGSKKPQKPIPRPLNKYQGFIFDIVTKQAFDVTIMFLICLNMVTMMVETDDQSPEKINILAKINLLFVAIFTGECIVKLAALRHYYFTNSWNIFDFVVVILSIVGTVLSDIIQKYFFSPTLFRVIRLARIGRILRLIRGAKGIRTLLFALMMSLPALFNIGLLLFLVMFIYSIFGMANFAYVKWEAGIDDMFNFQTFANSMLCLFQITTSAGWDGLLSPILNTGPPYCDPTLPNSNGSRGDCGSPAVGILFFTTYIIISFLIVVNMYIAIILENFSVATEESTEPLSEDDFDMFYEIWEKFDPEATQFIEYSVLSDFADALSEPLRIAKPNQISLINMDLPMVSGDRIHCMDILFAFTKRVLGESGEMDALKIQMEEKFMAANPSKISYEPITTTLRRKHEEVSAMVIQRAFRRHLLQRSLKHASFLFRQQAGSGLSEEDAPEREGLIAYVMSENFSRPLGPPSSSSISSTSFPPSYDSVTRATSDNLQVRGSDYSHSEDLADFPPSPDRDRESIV
hNav1.3, sequence (Q9NY46 whole entry, looked up): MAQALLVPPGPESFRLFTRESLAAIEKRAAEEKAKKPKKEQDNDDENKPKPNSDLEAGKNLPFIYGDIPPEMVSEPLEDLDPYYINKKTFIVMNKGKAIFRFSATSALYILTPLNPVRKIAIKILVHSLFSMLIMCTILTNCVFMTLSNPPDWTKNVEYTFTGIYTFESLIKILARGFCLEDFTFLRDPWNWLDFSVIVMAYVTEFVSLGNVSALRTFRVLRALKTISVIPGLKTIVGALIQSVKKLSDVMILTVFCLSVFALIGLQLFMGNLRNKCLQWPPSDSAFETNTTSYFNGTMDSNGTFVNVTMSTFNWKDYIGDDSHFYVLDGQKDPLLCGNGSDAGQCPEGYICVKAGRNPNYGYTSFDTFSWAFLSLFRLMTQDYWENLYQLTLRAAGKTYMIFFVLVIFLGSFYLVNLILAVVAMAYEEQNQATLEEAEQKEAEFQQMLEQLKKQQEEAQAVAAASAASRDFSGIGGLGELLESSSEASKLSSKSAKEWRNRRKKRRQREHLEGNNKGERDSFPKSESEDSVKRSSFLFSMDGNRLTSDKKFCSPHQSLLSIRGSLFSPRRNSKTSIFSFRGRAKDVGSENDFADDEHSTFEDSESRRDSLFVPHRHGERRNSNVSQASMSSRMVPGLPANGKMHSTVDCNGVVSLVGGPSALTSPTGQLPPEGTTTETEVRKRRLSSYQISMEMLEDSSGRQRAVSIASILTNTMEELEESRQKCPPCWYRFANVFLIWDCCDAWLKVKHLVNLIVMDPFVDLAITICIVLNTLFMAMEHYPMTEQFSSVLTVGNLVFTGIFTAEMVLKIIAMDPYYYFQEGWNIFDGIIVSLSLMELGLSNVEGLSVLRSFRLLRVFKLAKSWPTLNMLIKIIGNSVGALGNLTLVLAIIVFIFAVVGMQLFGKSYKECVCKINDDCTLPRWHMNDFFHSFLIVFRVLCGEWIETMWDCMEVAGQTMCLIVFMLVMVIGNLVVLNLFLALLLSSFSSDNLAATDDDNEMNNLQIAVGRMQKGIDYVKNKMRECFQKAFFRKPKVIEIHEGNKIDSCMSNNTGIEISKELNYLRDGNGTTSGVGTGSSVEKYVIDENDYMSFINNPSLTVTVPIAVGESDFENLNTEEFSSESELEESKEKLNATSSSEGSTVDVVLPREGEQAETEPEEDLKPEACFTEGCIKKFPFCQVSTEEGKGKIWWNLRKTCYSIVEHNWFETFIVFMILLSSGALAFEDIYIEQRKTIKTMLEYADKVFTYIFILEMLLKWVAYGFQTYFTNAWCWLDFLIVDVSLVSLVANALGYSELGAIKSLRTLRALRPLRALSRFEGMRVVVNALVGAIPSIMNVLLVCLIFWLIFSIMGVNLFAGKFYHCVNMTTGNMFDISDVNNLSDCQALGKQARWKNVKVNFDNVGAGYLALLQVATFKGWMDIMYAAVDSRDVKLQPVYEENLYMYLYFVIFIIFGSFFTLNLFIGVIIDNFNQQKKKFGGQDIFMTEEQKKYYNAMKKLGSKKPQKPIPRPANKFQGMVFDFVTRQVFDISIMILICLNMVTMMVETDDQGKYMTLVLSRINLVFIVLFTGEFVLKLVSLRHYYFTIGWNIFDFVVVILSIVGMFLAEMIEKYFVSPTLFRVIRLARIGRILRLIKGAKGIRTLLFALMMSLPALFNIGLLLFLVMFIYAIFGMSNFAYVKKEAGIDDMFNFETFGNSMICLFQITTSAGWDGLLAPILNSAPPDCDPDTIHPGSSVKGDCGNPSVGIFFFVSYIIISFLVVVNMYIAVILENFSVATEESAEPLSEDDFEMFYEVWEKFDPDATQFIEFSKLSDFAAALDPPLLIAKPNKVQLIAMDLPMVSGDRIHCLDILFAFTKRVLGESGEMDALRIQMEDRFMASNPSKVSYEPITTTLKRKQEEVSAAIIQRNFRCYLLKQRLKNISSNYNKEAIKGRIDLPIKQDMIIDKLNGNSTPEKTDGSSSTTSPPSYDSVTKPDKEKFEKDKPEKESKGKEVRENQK

Row | SMILES | IC50 (hNav1.3; Use) [µM] | IC50 (hNav1.3; [2]) [µM] | IC50 (hNav1.5; [3]) [µM] | also measured
1 | CC[C@H](C)[C@@H]1NC(=O)[C@@H]2CSSC[C@@H]3NC(=O)[C@H](C(C)C)NC(=O)[C@H](CC(C)C)NC(=O)[C@H](CC(N)=O)NC(=O)[C@@H]4CCCN4C(=O)[C@H](CCCNC(=N)N)NC(=O)[C@H](CSSC[C@H](NC(=O)[C@@H](N)CC(=O)O)C(=O)N[C@@H](CC(C)C)C(=O)NCC(=O)N[C@@H](Cc4ccccc4)C(=O)N[C@@H](CCSC)C(=O)N[C@@H](CCCNC(=N)N)C(=O)N[C@@H](CCCCN)C(=O)N2)NC(=O)[C@H](CSSC[C@@H](C(=O)N[C@@H](CCCCN)C(=O)N[C@@H](Cc2ccc(O)cc2)C(=O)N[C@H](C(=O)N[C@@H](Cc2ccccc2)C(N)=O)C(C)C)NC(=O)[C@H](Cc2cccc4ccccc24)NC(=O)[C@H](CCCCN)NC(=O)[C@H](Cc2cnc[nH]2)NC(=O)[C@H]([C@@H](C)O)NC(=O)[C@H](CCCNC(=N)N)NC(=O)[C@H](CO)NC3=O)NC(=O)[C@H](CCCCN)NC(=O)[C@H](CC(=O)O)NC(=O)[C@H](CC(N)=O)NC(=O)[C@H](CC(=O)O)NC(=O)[C@@H]2CCCN2C1=O [SEQ ID NO: 79, [1-Nal29]GpTx-1] (H-DCLGFMRKCIPDNDKCCRPNLVCSRTHK[1Nal]CKYVF-NH2; disulfide 2-17, 9-23, 16-30) |  |  |  | IC50 (hNav1.3; Table 24, use, […]): 1.55 µM; IC50 (hNav1.5; Table 24, IonWorks Quattro, use, […], read-out: IWQ Use Nav1.5): 9.25 µM
2 | CSCC[C@@H]1NC(=O)[C@H](Cc2ccccc2)NC(=O)CNC(=O)[C@H](CC(C)C)NC(=O)[C@@H](NC(=O)[C@@H](N)CC(=O)O)CSSC[C@@H]2NC(=O)[C@@H]3CSSC[C@@H](C(=O)N[C@@H](CCCCN)C(=O)N[C@@H](Cc4ccc(O)cc4)C(=O)N[C@H](C(=O)N[C@@H](Cc4ccccc4)C(N)=O)C(C)C)NC(=O)[C@H](Cc4c[nH]c5ccccc45)NC(=O)[C@H](CCCCN)NC(=O)[C@H](Cc4cnc[nH]4)NC(=O)[C@H]([C@@H](C)O)NC(=O)[C@H](CCCNC(=N)N)NC(=O)[C@H](CO)NC(=O)[C@H](CSSC[C@H](NC(=O)[C@H](CCCCN)NC(=O)[C@H](CCCNC(=N)N)NC1=O)C(=O)N[C@@H](CC(=O)O)C(=O)N1CCC[C@H]1C(=O)N[C@@H](CC(=O)O)C(=O)N[C@@H](CC(N)=O)C(=O)N[C@@H](CC(=O)O)C(=O)N[C@@H](CCCCN)C(=O)N3)NC(=O)[C@H](C(C)C)NC(=O)[C@H](CC(C)C)NC(=O)[C@H](CC(N)=O)NC(=O)[C@@H]1CCCN1C(=O)[C@H](CCCNC(=N)N)NC2=O [SEQ ID NO: 119, [Asp10]GpTx-1] (H-DCLGFMRKCDPDNDKCCRPNLVCSRTHKWCKYVF-NH2; disulfide 2-17, 9-23, 16-30) | 0.16 |  |  | IC50 (hNav1.5; [1]): 11.3 µM
3 | CC[C@H](C)[C@@H]1NC(=O)[C@@H]2CSSC[C@@H]3NC(=O)[C@H](C(C)C)NC(=O)[C@H](CC(C)C)NC(=O)[C@H](CC(N)=O)NC(=O)[C@@H]4CCCN4C(=O)[C@H](CCCNC(=N)N)NC(=O)[C@H](CSSC[C@H](NC(=O)[C@@H](N)CC(=O)O)C(=O)N[C@@H](CC(C)C)C(=O)N[C@@H](C)C(=O)N[C@@H](Cc4ccccc4)C(=O)N[C@@H](CCSC)C(=O)N[C@@H](CCCNC(=N)N)C(=O)N[C@@H](CCCCN)C(=O)N2)NC(=O)[C@H](CSSC[C@@H](C(=O)N[C@@H](CCCCN)C(=O)N[C@@H](Cc2ccc(O)cc2)C(=O)N[C@H](C(=O)N[C@@H](Cc2ccccc2)C(N)=O)C(C)C)NC(=O)[C@H](Cc2c[nH]c4ccccc24)NC(=O)[C@H](CCCCN)NC(=O)[C@H](Cc2cnc[nH]2)NC(=O)[C@H]([C@@H](C)O)NC(=O)[C@H](CCCNC(=N)N)NC(=O)[C@H](CO)NC3=O)NC(=O)[C@H](CCCCN)NC(=O)[C@H](CC(=O)O)NC(=O)[C@H](CC(N)=O)NC(=O)[C@H](CC(=O)O)NC(=O)[C@@H]2CCCN2C1=O [SEQ ID NO: 141] (H-DCLAFMRKCIPDNDKCCRPNLVCSRTHKWCKYVF-NH2; disulfide 2-17, 9-23, 16-30) |  | 0.21 |  | IC50 (hNav1.5; IWQ Use Nav1.5): 11.3 µM
4 | CC[C@H](C)[C@@H]1NC(=O)[C@@H]2CSSC[C@@H]3NC(=O)[C@H](C(C)C)NC(=O)[C@H](CC(C)C)NC(=O)[C@H](CC(N)=O)NC(=O)[C@@H]4CCCN4C(=O)[C@H](CCCNC(=N)N)NC(=O)[C@H](CSSC[C@H](NC(=O)[C@@H](N)CC(=O)O)C(=O)N[C@@H](CC(C)C)C(=O)NCC(=O)N[C@@H](Cc4ccccc4)C(=O)N[C@@H](CCC(=O)O)C(=O)N[C@@H](CCCNC(=N)N)C(=O)N[C@@H](CCCCN)C(=O)N2)NC(=O)[C@H](CSSC[C@@H](C(=O)N[C@@H](CCCCN)C(=O)N[C@@H](Cc2ccc(O)cc2)C(=O)N[C@H](C(=O)N[C@@H](Cc2ccccc2)C(N)=O)C(C)C)NC(=O)[C@H](Cc2c[nH]c4ccccc24)NC(=O)[C@H](CCCCN)NC(=O)[C@H](Cc2cnc[nH]2)NC(=O)[C@H]([C@@H](C)O)NC(=O)[C@H](CCCNC(=N)N)NC(=O)[C@H](CO)NC3=O)NC(=O)[C@H](CCCCN)NC(=O)[C@H](CC(=O)O)NC(=O)[C@H](CC(N)=O)NC(=O)[C@H](CC(=O)O)NC(=O)[C@@H]2CCCN2C1=O [SEQ ID NO: 144] (H-DCLGFERKCIPDNDKCCRPNLVCSRTHKWCKYVF-NH2; disulfide 2-17, 9-23, 16-30) |  | 20.4 | 9.39 | 
5 | CSCC[C@@H]1NC(=O)[C@H](Cc2ccccc2)NC(=O)CNC(=O)[C@H](CC(C)C)NC(=O)[C@@H](NC(=O)[C@@H](N)CC(=O)O)CSSC[C@@H]2NC(=O)[C@@H]3CSSC[C@@H](C(=O)N[C@@H](CCCCN)C(=O)N[C@@H](Cc4ccc(O)cc4)C(=O)N[C@H](C(=O)N[C@@H](Cc4ccccc4)C(N)=O)C(C)C)NC(=O)[C@H](Cc4c[nH]c5ccccc45)NC(=O)[C@H](CCCCN)NC(=O)[C@H](Cc4cnc[nH]4)NC(=O)[C@H]([C@@H](C)O)NC(=O)[C@H](CCCNC(=N)N)NC(=O)[C@H](CO)NC(=O)[C@H](CSSC[C@H](NC(=O)[C@H](CCCCN)NC(=O)[C@H](CCCNC(=N)N)NC1=O)C(=O)N[C@@H](CCC(=O)O)C(=O)N1CCC[C@H]1C(=O)N[C@@H](CC(=O)O)C(=O)N[C@@H](CC(N)=O)C(=O)N[C@@H](CC(=O)O)C(=O)N[C@@H](CCCCN)C(=O)N3)NC(=O)[C@H](C(C)C)NC(=O)[C@H](CC(C)C)NC(=O)[C@H](CC(N)=O)NC(=O)[C@@H]1CCCN1C(=O)[C@H](CCCNC(=N)N)NC2=O [SEQ ID NO: 146, [Glu10]GpTx-1] (H-DCLGFMRKCEPDNDKCCRPNLVCSRTHKWCKYVF-NH2; disulfide 2-17, 9-23, 16-30) | 0.15 |  |  | IC50 (hNav1.5; [1]): 9.55 µM
6 | CC[C@H](C)[C@@H]1NC(=O)[C@@H]2CSSC[C@@H]3NC(=O)[C@H](C(C)C)NC(=O)[C@H](CC(C)C)NC(=O)[C@H](CC(N)=O)NC(=O)[C@@H]4CCCN4C(=O)[C@H](CCCNC(=N)N)NC(=O)[C@H](CSSC[C@H](NC(=O)[C@@H](N)CC(=O)O)C(=O)N[C@@H](CC(C)C)C(=O)NCC(=O)N[C@@H](Cc4ccccc4)C(=O)N[C@@H](CCSC)C(=O)N[C@@H](CCCNC(=N)N)C(=O)N[C@@H](CCCCN)C(=O)N2)NC(=O)[C@H](CSSC[C@@H](C(=O)N[C@@H](CCCCN)C(=O)N[C@@H](Cc2ccc(O)cc2)C(=O)N[C@H](C(=O)N[C@@H](Cc2ccccc2)C(N)=O)C(C)C)NC(=O)[C@H](Cc2c[nH]c4ccccc24)NC(=O)[C@H](CCCCN)NC(=O)[C@H](Cc2cnc[nH]2)NC(=O)[C@H]([C@@H](C)O)NC(=O)[C@H](CCCNC(=N)N)NC(=O)[C@H](CO)NC3=O)NC(=O)[C@H](CCCCN)NC(=O)[C@H](CC(=O)O)NC(=O)[C@H](CC(N)=O)NC(=O)[C@H](CC(=O)O)NC(=O)[C@H](CCC(=O)O)NC1=O [SEQ ID NO: 147, [Glu11]GpTx-1] (H-DCLGFMRKCIEDNDKCCRPNLVCSRTHKWCKYVF-NH2; disulfide 2-17, 9-23, 16-30) | 0.21 |  |  | IC50 (hNav1.5; IWQ Use Nav1.5 (μM)): 15.6 µM
7 | CC[C@H](C)[C@@H]1NC(=O)[C@@H]2CSSC[C@@H]3NC(=O)[C@H](C(C)C)NC(=O)[C@H](CC(C)C)NC(=O)[C@H](CC(N)=O)NC(=O)[C@@H]4CCCN4C(=O)[C@H](CCCNC(=N)N)NC(=O)[C@H](CSSC[C@H](NC(=O)[C@@H](N)CC(=O)O)C(=O)N[C@@H](CCCNC(=N)N)C(=O)NCC(=O)N[C@@H](Cc4ccccc4)C(=O)N[C@@H](CCSC)C(=O)N[C@@H](CCCNC(=N)N)C(=O)N[C@@H](CCCCN)C(=O)N2)NC(=O)[C@H](CSSC[C@@H](C(=O)N[C@@H](CCCCN)C(=O)N[C@@H](Cc2ccc(O)cc2)C(=O)N[C@H](C(=O)N[C@@H](Cc2ccccc2)C(N)=O)C(C)C)NC(=O)[C@H](Cc2c[nH]c4ccccc24)NC(=O)[C@H](CCCCN)NC(=O)[C@H](Cc2cnc[nH]2)NC(=O)[C@H]([C@@H](C)O)NC(=O)[C@H](CCCNC(=N)N)NC(=O)[C@H](CO)NC3=O)NC(=O)[C@H](CCCCN)NC(=O)[C@H](CC(=O)O)NC(=O)[C@H](CC(N)=O)NC(=O)[C@H](CC(=O)O)NC(=O)[C@@H]2CCCN2C1=O [SEQ ID NO: 155] (H-DCRGFMRKCIPDNDKCCRPNLVCSRTHKWCKYVF-NH2; disulfide 2-17, 9-23, 16-30) |  | 0.05 | 8.45 | 
8 | CC[C@H](C)[C@@H]1NC(=O)[C@@H]2CSSC[C@@H]3NC(=O)[C@H](C(C)C)NC(=O)[C@H](CC(C)C)NC(=O)[C@H](CC(N)=O)NC(=O)[C@@H]4CCCN4C(=O)[C@H](CCCNC(=N)N)NC(=O)[C@H](CSSC[C@H](NC(=O)[C@@H](N)CC(=O)O)C(=O)N[C@@H](CC(C)C)C(=O)NCC(=O)N[C@@H](CCCNC(=N)N)C(=O)N[C@@H](CCSC)C(=O)N[C@@H](CCCNC(=N)N)C(=O)N[C@@H](CCCCN)C(=O)N2)NC(=O)[C@H](CSSC[C@@H](C(=O)N[C@@H](CCCCN)C(=O)N[C@@H](Cc2ccc(O)cc2)C(=O)N[C@H](C(=O)N[C@@H](Cc2ccccc2)C(N)=O)C(C)C)NC(=O)[C@H](Cc2c[nH]c4ccccc24)NC(=O)[C@H](CCCCN)NC(=O)[C@H](Cc2cnc[nH]2)NC(=O)[C@H]([C@@H](C)O)NC(=O)[C@H](CCCNC(=N)N)NC(=O)[C@H](CO)NC3=O)NC(=O)[C@H](CCCCN)NC(=O)[C@H](CC(=O)O)NC(=O)[C@H](CC(N)=O)NC(=O)[C@H](CC(=O)O)NC(=O)[C@@H]2CCCN2C1=O [SEQ ID NO: 156] (H-DCLGRMRKCIPDNDKCCRPNLVCSRTHKWCKYVF-NH2; disulfide 2-17, 9-23, 16-30) |  | 4.09 | 12.6 | 

— patent US9340590B2 (priority 2011, dated 2016)
